The values below come from BindingDB's records for patent US9834551 (Arrien Pharmaceuticals, 2017).

Structures are written as SMILES.

The assay deals with T1, Tyrosine-protein kinase JAK3 (Homo sapiens, UniProt P52333).
T1 sequence (P52333 whole entry): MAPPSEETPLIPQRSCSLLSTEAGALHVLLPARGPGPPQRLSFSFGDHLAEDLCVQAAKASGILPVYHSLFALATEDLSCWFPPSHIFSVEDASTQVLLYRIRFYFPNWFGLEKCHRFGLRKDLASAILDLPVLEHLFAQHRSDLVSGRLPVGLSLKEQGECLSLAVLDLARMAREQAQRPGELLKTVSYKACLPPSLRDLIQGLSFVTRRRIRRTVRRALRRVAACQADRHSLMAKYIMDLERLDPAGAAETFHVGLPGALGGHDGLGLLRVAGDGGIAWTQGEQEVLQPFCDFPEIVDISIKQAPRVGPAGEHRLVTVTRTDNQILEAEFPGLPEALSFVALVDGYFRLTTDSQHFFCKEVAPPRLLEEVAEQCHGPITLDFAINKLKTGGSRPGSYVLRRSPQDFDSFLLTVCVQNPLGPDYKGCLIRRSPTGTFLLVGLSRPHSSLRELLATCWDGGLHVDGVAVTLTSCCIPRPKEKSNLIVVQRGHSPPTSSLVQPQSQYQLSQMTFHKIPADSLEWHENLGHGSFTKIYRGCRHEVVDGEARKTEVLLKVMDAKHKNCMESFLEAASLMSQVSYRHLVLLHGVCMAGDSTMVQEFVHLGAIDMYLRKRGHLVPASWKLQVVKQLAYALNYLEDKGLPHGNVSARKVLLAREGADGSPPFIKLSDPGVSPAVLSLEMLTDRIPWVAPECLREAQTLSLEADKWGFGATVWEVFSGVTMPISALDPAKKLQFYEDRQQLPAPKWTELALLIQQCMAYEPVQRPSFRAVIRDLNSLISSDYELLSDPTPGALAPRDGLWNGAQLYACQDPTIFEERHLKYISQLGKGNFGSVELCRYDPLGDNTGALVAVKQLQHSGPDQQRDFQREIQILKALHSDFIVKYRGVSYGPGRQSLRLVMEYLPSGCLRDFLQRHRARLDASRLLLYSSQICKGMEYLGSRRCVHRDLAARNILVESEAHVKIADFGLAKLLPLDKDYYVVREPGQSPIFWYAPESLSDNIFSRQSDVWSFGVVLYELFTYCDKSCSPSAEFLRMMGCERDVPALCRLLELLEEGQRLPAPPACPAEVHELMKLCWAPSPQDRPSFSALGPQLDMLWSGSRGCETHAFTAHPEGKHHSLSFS
The assay can be described thus: In Vitro Inhibition Assay.

Procedure: All additions were done on ice, followed by the addition of ATP mix. Wells were uniformly mixed using an Eppendorff plate shaker and incubated at 30° C. for 20 min, and stopped by the addition of 5 μL of 3% phosphoric acid. Volume was increased to 100 μL by adding 0.8% phosphoric acid which was then transferred to PC filter mats (Millipore), pre-equilibrated with 70% ethanol and water. Plates were washed thrice with 100 μL 0.8% phosphoric acid and dried for an hour at 60° C. 100 μL scintillation fluid was added into each well and reading taken in Perkin Elmer TOPCOUNT beta counter.

Consider `C=CC(=O)Nc1cccc(-c2cnc3[nH]cc(-c4cccc(S(=O)(=O)N(CC)CC)c4)c3c2)c1` [US9834551, Example 28], for which the IC50 (as a rule, the concentration that inhibits the measured activity by half) was less than 100 nM.
The same measure for `C=CC(=O)Nc1cccc(-c2cnc3[nH]cc(-c4cccc(C)c4F)c3c2)c1` [US9834551, Example 148]: less than 100 nM.
